According to ChEMBL document CHEMBL1201862, “PubChem BioAssay data set” (2004):
The source made the active and inactive calls.

Legend:
[1] = target: T1, Acyl-homoserine lactone acylase PvdQ (Pseudomonas aeruginosa (strain LESB58), UniProt Q9I194); test: P. aeruginosa PvdQ acylase inhibitors, dose response, biochemical, fluorescence, plate reader and imaging, cherry-picks (AID 493231)
T1 sequence (Q9I194 whole entry): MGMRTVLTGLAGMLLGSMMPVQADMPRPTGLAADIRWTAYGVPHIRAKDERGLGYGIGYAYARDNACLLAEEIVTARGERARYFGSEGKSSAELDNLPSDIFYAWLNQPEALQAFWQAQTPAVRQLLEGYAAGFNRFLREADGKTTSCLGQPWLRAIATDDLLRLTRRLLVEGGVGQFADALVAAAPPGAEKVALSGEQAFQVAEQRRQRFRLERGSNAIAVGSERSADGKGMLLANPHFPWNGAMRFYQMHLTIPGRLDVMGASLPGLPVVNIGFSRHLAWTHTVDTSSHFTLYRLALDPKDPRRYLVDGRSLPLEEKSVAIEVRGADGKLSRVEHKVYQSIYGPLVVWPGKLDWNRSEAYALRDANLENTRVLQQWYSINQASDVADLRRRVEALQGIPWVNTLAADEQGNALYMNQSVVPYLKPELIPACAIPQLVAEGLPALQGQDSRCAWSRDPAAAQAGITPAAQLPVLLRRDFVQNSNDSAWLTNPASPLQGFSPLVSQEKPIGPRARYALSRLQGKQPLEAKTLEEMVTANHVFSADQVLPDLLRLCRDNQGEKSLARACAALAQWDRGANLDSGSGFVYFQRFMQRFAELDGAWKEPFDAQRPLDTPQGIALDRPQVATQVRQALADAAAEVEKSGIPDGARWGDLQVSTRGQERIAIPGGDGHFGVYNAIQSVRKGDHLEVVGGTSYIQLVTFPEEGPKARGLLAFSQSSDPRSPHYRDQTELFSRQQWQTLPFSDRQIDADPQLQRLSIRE

[2] = target: T2, Neuropeptide Y receptor type 1 (Homo sapiens, UniProt P25929); type: functional;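 also: HEK293 cells with a CNG channel challenged with NPY then isoproterenol; potency as antagonist that reverses NPY suppression of cAMP signal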
T2 sequence (P25929 whole entry): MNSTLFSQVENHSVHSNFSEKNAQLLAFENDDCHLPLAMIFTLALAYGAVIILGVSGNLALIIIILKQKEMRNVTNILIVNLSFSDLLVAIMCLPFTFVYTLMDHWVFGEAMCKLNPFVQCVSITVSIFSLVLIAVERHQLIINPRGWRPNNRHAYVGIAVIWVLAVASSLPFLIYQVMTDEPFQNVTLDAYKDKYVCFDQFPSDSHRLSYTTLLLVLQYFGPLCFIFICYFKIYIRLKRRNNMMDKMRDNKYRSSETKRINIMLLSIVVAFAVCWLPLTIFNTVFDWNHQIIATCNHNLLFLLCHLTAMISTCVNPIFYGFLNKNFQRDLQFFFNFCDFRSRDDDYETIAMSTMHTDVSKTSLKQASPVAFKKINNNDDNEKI

[3] = target: T3, Neuropeptide Y receptor type 2 (Homo sapiens, UniProt P49146); type: functional, cell-based;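 also: HEK293 cells expressing the receptor and a CNG channel; stimulus was NPY near EC95 followed by isoproterenol to raise cAMP; antagonist potency measured as restoring cAMP signal that NPY suppresses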
T3 sequence (P49146 whole entry): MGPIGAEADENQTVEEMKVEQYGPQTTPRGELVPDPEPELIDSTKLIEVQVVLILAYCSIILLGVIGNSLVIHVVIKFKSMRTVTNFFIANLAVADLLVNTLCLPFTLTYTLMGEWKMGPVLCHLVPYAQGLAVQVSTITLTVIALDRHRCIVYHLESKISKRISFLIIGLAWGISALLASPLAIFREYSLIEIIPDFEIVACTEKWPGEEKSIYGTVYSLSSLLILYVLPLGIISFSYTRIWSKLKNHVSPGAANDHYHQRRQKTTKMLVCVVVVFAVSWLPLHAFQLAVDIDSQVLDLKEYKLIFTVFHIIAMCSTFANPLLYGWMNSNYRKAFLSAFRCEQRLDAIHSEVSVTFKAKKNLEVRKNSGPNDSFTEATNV

[4] = target: T4, Mucolipin-3 (Homo sapiens, UniProt Q8TDD5); test: Dose response cell-based high-throughput screening assay for agonists of the transient receptor potential channel ML3 (TRPML3). [Related pubchem assays: 1526, 1424, 1448 ]; type: functional
T4 sequence (Q8TDD5 whole entry): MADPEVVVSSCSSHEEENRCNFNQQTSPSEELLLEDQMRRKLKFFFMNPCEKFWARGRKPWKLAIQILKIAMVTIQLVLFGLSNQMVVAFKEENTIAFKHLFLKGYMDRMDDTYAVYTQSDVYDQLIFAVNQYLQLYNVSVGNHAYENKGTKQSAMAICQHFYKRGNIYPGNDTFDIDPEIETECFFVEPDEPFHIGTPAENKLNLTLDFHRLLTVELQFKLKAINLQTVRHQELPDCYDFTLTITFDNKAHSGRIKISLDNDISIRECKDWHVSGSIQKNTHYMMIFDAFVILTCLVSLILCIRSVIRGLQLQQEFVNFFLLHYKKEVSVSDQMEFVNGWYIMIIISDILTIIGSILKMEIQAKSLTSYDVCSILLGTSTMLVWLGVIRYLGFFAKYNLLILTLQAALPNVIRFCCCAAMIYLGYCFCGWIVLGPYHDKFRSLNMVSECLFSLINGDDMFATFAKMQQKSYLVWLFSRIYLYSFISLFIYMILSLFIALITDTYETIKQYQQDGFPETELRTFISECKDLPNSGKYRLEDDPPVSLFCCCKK

[5] = target: Ion channel NompC (Danio rerio, UniProt Q7T1G6); test: Fluorescence counterscreen assay for TRPML3 agonists: dose response cell-based high-throughput screening assay to identify agonists of the transient receptor potential channel N1 (TRPN1). [Related pubchem assays: 1526, 1424, 1448 ]; type: functional
[6] = target: T5, Protein skinhead-1 (Caenorhabditis elegans, UniProt P34707); type: functional
T5 sequence (P34707 whole entry): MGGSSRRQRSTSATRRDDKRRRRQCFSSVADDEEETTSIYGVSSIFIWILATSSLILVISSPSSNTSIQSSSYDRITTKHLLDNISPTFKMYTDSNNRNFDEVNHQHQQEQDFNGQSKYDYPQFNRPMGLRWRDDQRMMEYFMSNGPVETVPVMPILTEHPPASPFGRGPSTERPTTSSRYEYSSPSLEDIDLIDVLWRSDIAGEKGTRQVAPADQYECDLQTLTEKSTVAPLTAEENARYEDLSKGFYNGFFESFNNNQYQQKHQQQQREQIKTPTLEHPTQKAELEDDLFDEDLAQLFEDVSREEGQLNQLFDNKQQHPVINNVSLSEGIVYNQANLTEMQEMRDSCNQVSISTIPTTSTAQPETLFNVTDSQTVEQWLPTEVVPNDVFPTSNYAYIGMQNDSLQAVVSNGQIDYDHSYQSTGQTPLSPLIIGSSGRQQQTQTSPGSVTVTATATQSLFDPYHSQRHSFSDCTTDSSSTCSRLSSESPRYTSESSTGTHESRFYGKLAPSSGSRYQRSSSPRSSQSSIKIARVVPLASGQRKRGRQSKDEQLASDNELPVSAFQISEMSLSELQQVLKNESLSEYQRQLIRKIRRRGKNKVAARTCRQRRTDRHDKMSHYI

[7] = target: Procathepsin L (Homo sapiens, UniProt P07711)
[8] = target: T6, Aspartyl aminopeptidase (Plasmodium falciparum 3D7, UniProt Q8I2J3)
T6 sequence (Q8I2J3 whole entry): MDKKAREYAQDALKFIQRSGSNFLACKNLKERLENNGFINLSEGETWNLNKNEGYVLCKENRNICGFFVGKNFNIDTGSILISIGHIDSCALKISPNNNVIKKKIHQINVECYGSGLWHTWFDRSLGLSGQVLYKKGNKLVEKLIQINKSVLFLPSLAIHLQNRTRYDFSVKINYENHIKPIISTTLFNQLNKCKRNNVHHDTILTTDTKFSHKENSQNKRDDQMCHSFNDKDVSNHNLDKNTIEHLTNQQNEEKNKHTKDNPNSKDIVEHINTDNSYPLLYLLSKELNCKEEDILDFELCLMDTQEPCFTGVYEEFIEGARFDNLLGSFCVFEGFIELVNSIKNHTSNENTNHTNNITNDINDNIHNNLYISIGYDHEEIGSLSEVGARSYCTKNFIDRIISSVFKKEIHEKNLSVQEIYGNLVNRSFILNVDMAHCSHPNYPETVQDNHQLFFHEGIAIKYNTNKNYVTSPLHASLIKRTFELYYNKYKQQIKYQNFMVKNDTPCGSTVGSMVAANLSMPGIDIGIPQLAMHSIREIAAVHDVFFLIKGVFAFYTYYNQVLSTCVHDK

[9] = cytotoxicity in HEK-293T cells, dose response, cytotoxicity control for BCR NF-kB inhibitor project, luminescence, B-cell screen hits (AID 489021); type: functional, cell-based;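 also: HEK-293T cells carrying an NF-kB luciferase reporter; cells exposed to compound for about 14 hours before viability readout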
[10] = Luminescence Cell-Based Dose Confirmation HTS to Identify Activators of 5'UTR Stem-Loop Driven Alpha-Synuclein mRNA Translation in H4 Neuroglioblastoma Cells. [Related pubchem assays: 1829 (Project Summary), 1814 (Primary HTS)]; type: functional
[11] = Luminescence Cell-Based Dose Response HTS to Identify Activators of Luciferase Translation or Activity in H4 […] Cells. [Related pubchem assays: 1829 (Project Summary), 1814 (Primary HTS)]; type: functional
[12] = tested on: H4; test: Luminescence Cell-Based Dose Response HTS to Identify Activators of 5'UTR Stem-Loop Driven Prion Protein mRNA Translation in H4 Neuroglioblastoma Cells. [Related pubchem assays: 1829 (Project Summary), 1814 (Primary HTS)]; type: functional; conditions: Homo sapiens
[13] = Luminescence Cell-Based Dose Retest to Confirm Inhibitors of Cancer Stem Cells. [Related pubchem assays (depositor defined):AID2717, AID2721]; type: functional; conditions: Homo sapiens

Procathepsin L, sequence (P07711 whole entry): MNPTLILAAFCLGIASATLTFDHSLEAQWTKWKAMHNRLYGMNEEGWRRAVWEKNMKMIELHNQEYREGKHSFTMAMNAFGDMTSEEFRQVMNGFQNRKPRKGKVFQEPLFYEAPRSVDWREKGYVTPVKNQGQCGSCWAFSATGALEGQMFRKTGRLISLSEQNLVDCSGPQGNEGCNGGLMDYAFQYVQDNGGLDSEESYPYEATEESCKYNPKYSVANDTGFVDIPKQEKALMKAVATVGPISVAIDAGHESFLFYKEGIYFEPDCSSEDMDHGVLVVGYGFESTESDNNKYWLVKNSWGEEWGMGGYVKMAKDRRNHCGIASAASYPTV
Ion channel NompC, sequence (Q7T1G6 whole entry): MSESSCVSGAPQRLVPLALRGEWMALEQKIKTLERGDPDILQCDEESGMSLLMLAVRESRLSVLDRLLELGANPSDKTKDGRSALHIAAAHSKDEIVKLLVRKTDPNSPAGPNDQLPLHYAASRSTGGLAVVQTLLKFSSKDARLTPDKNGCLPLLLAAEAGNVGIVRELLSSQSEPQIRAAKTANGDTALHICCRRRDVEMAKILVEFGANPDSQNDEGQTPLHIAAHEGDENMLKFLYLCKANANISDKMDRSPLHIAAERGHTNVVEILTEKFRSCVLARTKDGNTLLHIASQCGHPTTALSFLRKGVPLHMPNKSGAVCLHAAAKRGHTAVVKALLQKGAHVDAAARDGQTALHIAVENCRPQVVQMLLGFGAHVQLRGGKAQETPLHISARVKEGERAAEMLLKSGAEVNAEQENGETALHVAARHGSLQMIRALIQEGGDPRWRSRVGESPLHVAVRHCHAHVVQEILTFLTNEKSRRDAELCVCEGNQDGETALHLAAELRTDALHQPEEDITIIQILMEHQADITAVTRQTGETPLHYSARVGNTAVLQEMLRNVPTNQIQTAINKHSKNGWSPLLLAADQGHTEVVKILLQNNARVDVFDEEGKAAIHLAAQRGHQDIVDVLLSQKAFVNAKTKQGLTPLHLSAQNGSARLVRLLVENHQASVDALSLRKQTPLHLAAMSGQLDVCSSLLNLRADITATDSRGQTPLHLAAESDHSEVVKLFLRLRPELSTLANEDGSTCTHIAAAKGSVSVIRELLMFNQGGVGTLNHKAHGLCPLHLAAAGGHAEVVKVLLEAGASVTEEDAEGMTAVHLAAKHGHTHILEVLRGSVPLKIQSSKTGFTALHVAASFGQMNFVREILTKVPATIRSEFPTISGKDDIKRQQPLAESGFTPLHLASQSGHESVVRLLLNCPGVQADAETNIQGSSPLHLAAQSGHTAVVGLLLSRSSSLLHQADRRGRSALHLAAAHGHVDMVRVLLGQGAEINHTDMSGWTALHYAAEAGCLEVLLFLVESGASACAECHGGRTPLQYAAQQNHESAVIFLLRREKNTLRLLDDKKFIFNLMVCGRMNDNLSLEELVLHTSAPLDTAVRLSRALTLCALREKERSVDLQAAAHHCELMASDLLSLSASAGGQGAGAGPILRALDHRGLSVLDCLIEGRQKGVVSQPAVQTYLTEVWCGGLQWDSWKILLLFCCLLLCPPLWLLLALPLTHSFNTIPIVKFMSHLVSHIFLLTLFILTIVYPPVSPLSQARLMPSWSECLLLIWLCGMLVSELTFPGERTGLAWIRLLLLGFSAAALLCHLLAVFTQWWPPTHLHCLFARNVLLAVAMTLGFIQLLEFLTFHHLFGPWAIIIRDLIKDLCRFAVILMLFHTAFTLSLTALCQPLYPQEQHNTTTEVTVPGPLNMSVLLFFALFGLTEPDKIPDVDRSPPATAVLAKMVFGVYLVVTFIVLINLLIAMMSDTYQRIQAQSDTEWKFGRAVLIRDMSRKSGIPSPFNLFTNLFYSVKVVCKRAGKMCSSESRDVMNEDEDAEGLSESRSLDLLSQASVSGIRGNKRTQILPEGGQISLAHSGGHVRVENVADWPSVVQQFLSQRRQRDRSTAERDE

SMILES: COC(=O)c1ccc(NC(=S)N2CCCC2)cc1
- AC50 [1]: 10.3 µM (active)

SMILES: CCCCCCNS(=O)(=O)c1ccc(NC(=O)C2CCCO2)cc1 (stereo unspecified)
- IC50 [2]: 13.7 µM (not active)
- IC50 [3]: 7.94 µM (active)

SMILES: O=C(C=Cc1ccco1)c1cc(Cl)ccc1O
- AC50 [1]: 21.6 µM (active)

SMILES: COc1ccc(/C=N/NC(=O)CN(CCc2ccccc2)S(=O)(=O)c2ccc(NC(C)=O)cc2)cc1OC
- IC50 [2]: 10.4 µM (not active)
- IC50 [3]: 3.55 µM (active)

SMILES: COc1ccc(S(=O)(=O)N2CCCCCC2)cc1N(C)S(=O)(=O)c1ccccc1
- EC50 [4]: 3.92 µM (active)
- EC50 [5]: > 29.9 µM (not active)

SMILES: O=C(/C=C/c1ccccc1)Nn1cnnc1
- IC50 [6]: > 100 µM (inactive)
- IC50 [7]: > 59.6 µM (not active)
- IC50 [8]: 1.76 µM (active)

SMILES: N=c1ccn(Cc2c(Cl)cccc2Cl)cc1
- IC50 [9]: > 80 µM (inactive)

SMILES: CCOC(=O)c1cc2c(s1)-c1c(C)cccc1OC2
- EC50 [10]: 39.8 µM (active)
- EC50 [11]: 7.26 µM (active)
- AC50 [1]: 0.443 µM (active)
- EC50 [12]: 30.9 µM (active)

SMILES: Cc1ccc(S(=O)(=O)c2c(C)nn(C(C)(C)C)c2OC(=O)C2CCCC2)cc1
- EC50 [4]: > 29.9 µM (not active)
- EC50 [5]: > 29.9 µM (not active)

SMILES: O=C(CNC(=O)c1ccccc1)NCCc1ccc(O)c(O)c1
- IC50 [7]: > 59.6 µM (not active)
- IC50 [8]: 1.81 µM (active)

SMILES: COc1cc(Br)cc(/C=N/c2nc[nH]n2)c1O
- IC50 [7]: > 59.6 µM (not active)
- IC50 [8]: 2.35 µM (active)

SMILES: CCc1ccc2[nH]c3nc(N/N=C/c4cccc(O)c4)nnc3c2c1
- AC50 [13]: < 160 nM (active)
- IC50 [9]: > 80 µM (inactive)

SMILES: CC(/C=C1\SC(=S)N(NC(=O)c2ccc(C)cc2)C1=O)=C\c1ccccc1
- IC50 [2]: > 35 µM (not active)
- IC50 [3]: 20.6 µM (not active)
